Where “and” joins values, the source holds several entries; their conditions need not be identical. Equal entries are not always repeated. After the bases stand the sugars from the 5' end (letter, count) and the backbone: PS all phosphorothioate, else s phosphorothioate and o phosphodiester by linkage. Methylation of C is not given here. e = 2'-O-(2-methoxyethyl) (MOE); k = constrained ethyl (cEt); d = 2'-deoxy (DNA)
Target: SOD1
Conditions: ASO

| Sequence | target mRNA inhibition (HepG2, 3 µM) | target mRNA inhibition (HepG2, 5 µM) | also measured |
| --- | --- | --- | --- |
| GCAAAATACAGGTCATT (sugars e3 k2 d7 k2 e3, PS) | 43% | – | – |
| TACAGCTAGCAGGATAA (sugars e2 k2 d8 k2 e3, PS) | 90% | – | target mRNA inhibition (HepG2, 0.1875 µM): 35%; target mRNA inhibition (HepG2, 0.75 µM): 70%; target mRNA inhibition (HepG2, 4 µM): 85% and 77%; target mRNA inhibition (HepG2, 12 µM): 91% and 97% |
| AGGTCATTGAAACAGAC (sugars e2 k2 d9 k2 e2, PS) | – | 44% | – |
| TCTGCTTTTTCATGGAC (sugars e3 k2 d7 k2 e3, PS) | 55% | – | – |
| AACAGATGAGTTAAGGG (sugars e2 k2 d9 k2 e2, PS) | 82% | – | target mRNA inhibition (HepG2, 0.1875 µM): 27%; target mRNA inhibition (HepG2, 0.75 µM): 49%; target mRNA inhibition (HepG2, 4 µM): 86% and 82%; target mRNA inhibition (HepG2, 12 µM): 89% and 92% |
| ATGTTTATCAGGATACA (sugars e3 k1 d8 k1 e4, linkages s1 o2 s9 o2 s2) | – | – | target mRNA inhibition (A431, 0.062 µM): 7%; target mRNA inhibition (A431, 0.185 µM): 18%; target mRNA inhibition (A431, 0.556 µM): 38%; target mRNA inhibition (A431, 1.667 µM): 53%; target mRNA inhibition (A431, 5 µM): 68%; target mRNA inhibition (A431, 15 µM): 79%; target mRNA inhibition (SH-SY5Y, 0.062 µM): 4%; target mRNA inhibition (SH-SY5Y, 0.185 µM): 30%; target mRNA inhibition (SH-SY5Y, 0.556 µM): 51%; target mRNA inhibition (SH-SY5Y, 1.667 µM): 68%; target mRNA inhibition (SH-SY5Y, 5 µM): 88%; target mRNA inhibition (SH-SY5Y, 15 µM): 92% |
| CTGACAAGTTTAATACC (sugars e2 k2 d9 k2 e2, PS) | – | 36% | – |
| CCATCTGTGATTTAAGT (sugars e2 k2 d9 k2 e2, PS) | – | 47% | – |
| ACAAGTTTAATACCCAT (sugars e3 k2 d7 k2 e3, PS) | 23% | – | – |
| TCTGTGATTTAAGTCTGGCA (sugars e5 d10 e5, PS) | – | 44% | – |
| AATCTTCCAAGTGATCA (sugars e2 k2 d9 k2 e2, PS) | – | 38% | – |
| AAAGTCACACAATTACACTT (sugars e5 d10 e5, PS) | – | 15% | – |
| GACTACATCCAAGGGAA (sugars e2 k2 d9 k2 e2, PS) | – | – | target mRNA inhibition (HepG2, 4 µM): 57% |
| TGGCAAAATACAGGTCA (sugars e2 k2 d9 k2 e2, PS) | – | 43% | – |
| AAATACAGGTCATTGAA (sugars e2 k2 d9 k2 e2, PS) | – | 47% | – |
| TATAGGCCAGACCTCCGCGC (sugars e5 d10 e5, PS) | – | – | target mRNA inhibition (HepG2, 4 µM): 40% |
| TGCAACGGAAACCCCAGACG (sugars e5 d10 e5, PS) | – | – | target mRNA inhibition (HepG2, 4 µM): 21% |
| ACAGGGTTTTTATTCAC (sugars e2 k2 d8 k2 e3, PS) | – | 29% | – |
| CACTTTTAAGATTACAG (sugars e2 k2 d9 k2 e2, PS) | – | 49% | – |
| TACAGTGTTTAATGTTT (sugars e3 k2 d7 k2 e3, PS) | 30% | – | – |
| TGTGATTTAAGTCTGGC (sugars e2 k2 d8 k2 e3, PS) | – | 45% | – |

| Sequence | target mRNA inhibition (HepG2, 3 µM) | target mRNA inhibition (HepG2, 5 µM) | also measured |
| --- | --- | --- | --- |
| CTACAGGTACTTTAAAG (sugars e2 k2 d9 k2 e2, PS) | – | 16% | – |
| GTTTAATGTTTATCAGG (sugars e2 k2 d8 k2 e3, PS) | 87% | 87% | target mRNA inhibition (HepG2, 0.1875 µM): 55%; target mRNA inhibition (HepG2, 0.75 µM): 78%; target mRNA inhibition (HepG2, 12 µM): 93% |
| TCTTTGTCAGCAGTCACATT (sugars e5 d10 e5, PS) | – | 20% and 11% | – |
| CACAAGCCAAACGACTTCCA (sugars e5 d10 e5, PS) | – | 47% | – |
| TCTGCTCGAAATTGATG (sugars e3 k2 d7 k2 e3, PS) | 34% | – | – |
| ATCCAAGGGAATGTTTA (sugars e2 k2 d9 k2 e2, PS) | – | – | target mRNA inhibition (HepG2, 4 µM): 39% |
| TGGGCGATCCCAATTAC (sugars e2 k2 d8 k2 e3, PS) | – | – | target mRNA inhibition (HepG2, 4 µM): 19% |
| TATACAAATCTTCCAAG (sugars e3 k2 d7 k2 e3, PS) | 11% | – | – |
| TGCTTTTTCATGGACCA (sugars e3 k2 d7 k2 e3, PS) | 51% | – | – |
| GTCATTGAAACAGACAT (sugars e2 k2 d9 k2 e2, PS) | – | 15% | – |
| ACTTTTAAGATTACAGTGTT (sugars e5 d10 e5, PS) | – | 24% | – |
| GTGTTTAATGTTTATCA (sugars e3 k2 d7 k2 e3, PS) | 37% | – | – |
| TCTACAGCTAGCAGGAT (sugars e3 k2 d7 k2 e3, PS) | 51% | – | – |
| AGACTACATCCAAGGGA (sugars e2 k2 d9 k2 e2, PS) | – | – | target mRNA inhibition (HepG2, 4 µM): 55% |
| CGCCATAACTCGCTAGGCCA (sugars e5 d10 e5, PS) | – | – | target mRNA inhibition (HepG2, 4 µM): 59% |
| GTCGCCATAACTCGCTAGGC (sugars e5 d10 e5, PS) | 39% | – | target mRNA inhibition (HepG2, 0.1875 µM): 10%; target mRNA inhibition (HepG2, 0.75 µM): 21%; target mRNA inhibition (HepG2, 4 µM): 40%; target mRNA inhibition (HepG2, 12 µM): 90% |
| TCATTTCCACCTTTGCC (sugars e3 k2 d7 k2 e3, PS) | 57% | – | – |
| TGAACATGGAATCCATG (sugars e3 k2 d7 k2 e3, PS) | 2% | – | – |
| ACTACATCCAAGGGAAT (sugars e3 k2 d7 k2 e3, PS) | 7% | – | – |
| TCACACAATTACACTTT (sugars e2 k2 d9 k2 e2, PS) | – | 39% | – |

Source: the OligoGym collection
